Values joined by “and” are separate entries in the source; they are usually repeats but may differ in a detail not shown here. Equal entries are not always repeated.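 Where inhibition never reached the appropriate level, the endpoint shown equals the highest concentration tested. Otherwise, values were interpolated linearly from a five-concentration, 48-hour dose response in 96-well plates. Abbreviation: GI50, concentration required for 50% inhibition of growth. At the TGI there is no net growth.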
Tests used:
Assay in all cases: NCI-60 cell line screen, 48 h
CCRF-CEM leukemia = test system: CCRF-CEM leukemia
IGROV1 ovarian = test system: IGROV1 ovarian
HT29 colon = test system: HT29 colon
RXF 393 renal = test system: RXF 393 renal
SW-620 colon = test system: SW-620 colon
CAKI-1 renal = test system: CAKI-1 renal
KM12 colon = test system: KM12 colon
SN12C renal = test system: SN12C renal
SK-MEL-5 melanoma = test system: SK-MEL-5 melanoma
SF-295 CNS = test system: SF-295 CNS

| Compound | GI50 (CCRF-CEM leukemia) | TGI (CCRF-CEM leukemia) | GI50 (IGROV1 ovarian) | TGI (IGROV1 ovarian) | GI50 (HT29 colon) | TGI (HT29 colon) | GI50 (RXF 393 renal) | TGI (RXF 393 renal) | GI50 (SW-620 colon) | TGI (SW-620 colon) | GI50 (CAKI-1 renal) | TGI (CAKI-1 renal) | GI50 (KM12 colon) | TGI (KM12 colon) | GI50 (SN12C renal) | TGI (SN12C renal) | GI50 (SK-MEL-5 melanoma) | TGI (SK-MEL-5 melanoma) | GI50 (SF-295 CNS) | TGI (SF-295 CNS) |
| --- | --- | --- | --- | --- | --- | --- | --- | --- | --- | --- | --- | --- | --- | --- | --- | --- | --- | --- | --- | --- |
| Fc1ccc(-c2nn3c(COc4ccccc4Cl)nnc3s2)cc1Oc1ccccc1 | > 100 µM | > 100 µM | 31 µM | > 100 µM | 44.9 µM | > 100 µM | > 100 µM | > 100 µM | > 100 µM | > 100 µM | 19.4 µM | 44 µM | 43.1 µM | > 100 µM | 20.8 µM | 56.6 µM | 53.3 µM | > 100 µM | 18.9 µM | 50.9 µM |
| O=C1/C(=C\c2ccc(Cl)cc2)CN(C(=O)c2ccccc2)C/C1=C\c1ccc(Cl)cc1 | 2.5 µM | > 70.2 µM | 3.22 µM | 9.78 µM | 1.66 µM | 5 µM | 1.68 µM | 3.26 µM | 1.75 µM | 5.01 µM | 8.45 µM | > 100 µM | 1.2 µM | 3.18 µM | 2.16 µM | 5.4 µM | 2.39 µM | 6.78 µM | 3.38 µM | 57.7 µM |
| OCC(O)COc1ccc(F)cc1 (centres undefined) | – | > 100 µM | – | > 100 µM | – | > 100 µM | – | > 100 µM | – | > 100 µM | – | > 100 µM | – | > 100 µM | – | > 100 µM | – | > 100 µM | – | > 100 µM |
| CCOC(=O)Nc1ccc2c3c(cccc13)-c1ccccc1-2 | 7.85 µM | > 100 µM | 1.98 µM | > 100 µM | 3.67 µM | > 100 µM | 6.92 µM | > 100 µM | 3.92 µM | > 100 µM | 3.29 µM | > 100 µM | 2.32 µM | > 100 µM | 5.98 µM | > 100 µM | 3.96 µM | > 100 µM | 2.82 µM | 7.87 µM |
| CCOC(=O)Nc1nc(-c2ccccc2)c(C)s1 | – | > 100 µM | – | > 100 µM | – | > 100 µM | – | > 100 µM | – | > 100 µM | – | > 100 µM | – | > 100 µM | – | > 100 µM | – | > 100 µM | – | > 100 µM |
| O=C(Cc1c(C(=O)Nc2ccccc2)sc(C(=O)Nc2ccccc2)c1CC(=O)Nc1ccccc1)Nc1ccccc1 | – | > 100 µM | – | > 100 µM | – | > 100 µM | – | > 100 µM | – | > 100 µM | – | > 100 µM | – | > 100 µM | – | > 100 µM | – | > 100 µM | – | > 100 µM |
| O=C(NCCNc1nccc(-c2c(-c3ccc(F)cc3)nc3sccn23)n1)Nc1cccc(C(F)(F)F)c1 | 3.14 µM | 30.1 µM | 4.59 µM | 20 µM | 6.44 µM | 28 µM | 1.99 µM | 6.05 µM | 13.6 µM | 32 µM | 3.68 µM | 27.6 µM | 6.43 µM | 23.9 µM | 6.42 µM | 22.7 µM | 1.58 µM | 3.43 µM | 4.28 µM | 17.6 µM |
| CC(=O)OC1C(COC(N)=O)OC(n2c(-c3ccc(C)cc3)cc(-c3ccccc3)c(C#N)c2=O)C(OC(C)=O)C1OC(C)=O (centres undefined) | – | > 100 µM | – | > 100 µM | – | > 100 µM | – | > 100 µM | – | > 100 µM | – | > 100 µM | – | > 100 µM | – | > 100 µM | – | > 100 µM | – | > 100 µM |
| Nc1ncnc2occ(-c3ccc(NC(=O)Nc4cc(C(F)(F)F)ccc4F)cc3)c12 | 7.55 µM and 1.58 µM | 22.8 µM and > 25 µM | 3.82 µM and 1.27 µM | 14.1 µM and 7.18 µM | 4.42 µM and 2.64 µM | 11.6 µM and 7.03 µM | 2.95 µM and 1.11 µM | 7.06 µM and 3.92 µM | 7.71 µM and 4.14 µM | 23.7 µM and 12.1 µM | 4.36 µM and 1.78 µM | 18.2 µM and 9 µM | 0.133 µM and 0.115 µM | 4.81 µM and 3.08 µM | 4 µM and 1.47 µM | 21.2 µM and 11.6 µM | 3.56 µM and 3.57 µM | 7.02 µM and 6.93 µM | 4.97 µM and 3.23 µM | 16.3 µM and 9.43 µM |
| COc1cc2c3c(n(CCCNC(C)(C)CO)c(=O)c2cc1OC)-c1cc2c(cc1C3=O)OCO2 | – | 1.58 µM | 1.7 µM | > 100 µM | 1.08 µM | > 100 µM | 16.2 µM | > 68 µM | 0.25 µM | 19 µM | 0.446 µM | 23.8 µM | 2.19 µM | > 100 µM | 0.157 µM | 2.65 µM | 3.5 µM | 13.3 µM | 0.214 µM | 49.1 µM |
| COc1cc2cc(Oc3ccc(NC(=O)Nc4ccc(F)c(C(F)(F)F)c4)cc3)c(C)nc2cc1OCCN1CCOCC1 | 1.72 µM | 11.5 µM | 2.69 µM | 19.5 µM | 3.07 µM | 21.8 µM | 1.78 µM | 3.94 µM | 3.34 µM | 9.86 µM | 2.06 µM | 9.55 µM | 2.69 µM | 10.6 µM | 2.65 µM | 15.5 µM | 1.14 µM | 2.36 µM | 1.35 µM | 4.22 µM |
| CCCC(c1cc(C(C)(C)C)c(O)cc1C)c1cc(C(C)(C)C)c(O)cc1C | – | 6.88 µM | – | 14.6 µM | – | 17.5 µM | – | 4.56 µM | – | 10.2 µM | – | 15.3 µM | – | 11.1 µM | – | 3.81 µM | – | 3.26 µM | – | 6.11 µM |
| O=P1(O)c2ccccc2CSCc2ccccc21 | – | > 100 µM | – | > 100 µM | – | > 100 µM | – | > 100 µM | – | > 100 µM | – | > 100 µM | – | > 100 µM | – | > 100 µM | – | > 100 µM | – | > 100 µM |
| COC(=O)C(=O)C(C(=O)C(=O)Nc1ccccc1C(N)=O)c1nc2ccc([N+](=O)[O-])cc2[nH]c1=O (centres undefined) | – | > 100 µM | – | > 100 µM | – | > 100 µM | – | > 100 µM | – | > 100 µM | – | > 100 µM | – | > 100 µM | – | > 100 µM | – | > 100 µM | – | > 100 µM |
| Cc1cc(S(=O)(=O)Nc2n[nH]c(-c3ccc(Cl)cc3)c2C#N)c(S)cc1Cl | > 100 µM | > 100 µM | > 100 µM | > 100 µM | > 100 µM | > 100 µM | > 100 µM | > 100 µM | > 100 µM | > 100 µM | 30.3 µM | > 100 µM | > 100 µM | > 100 µM | > 100 µM | > 100 µM | > 100 µM | > 100 µM | > 100 µM | > 100 µM |
